Source: US12528816B2, “Substituted imidazo [1,2-b] pyridazines and [1, 2, 4] triazolo [ 4,3-b] pyridazines as camkii inhibitors” (Cardurion Pharmaceuticals, INC., priority 2020, dated 2026)

What follows are compounds tested against T1, human CaMKIIδ (Homo sapiens, UniProt Q13557) (assay: Evaluation of in vitro CaMKII inhibitory activity (binding assay, TR-FRET)). Conditions: human CaMKIIδ, TR-FRET binding assay; class symbols A/B/C; read-out: Act (CaMKII inhibitory activity, binding assay).
T1 construct: Full-length, glutathione-S-transferase(GST)-tagged, human CaMKIIδ was purchased from Carna Biosciences; purchased Carna Biosciences (CaMKIIδ); Wako Pure Chemical Industries (calmodulin) 02-111
Protocol: Evaluation of In Vitro CaMKII Inhibitory Activity (Binding Assay)
In vitro CaMKIIδ inhibitory activity was evaluated by a binding assay.
Full-length bovine calmodulin was purchased from Wako Pure Chemical Industries (Osaka, Japan). Terbium-labeled anti-GST anti body (Tb-anti-GST Ab) was purchased from Life Technologies (Carlsbad, CA, USA). Fluorescent probe ligand, 5,5-difluoro-7,9-dimethyl-3-(3-oxo-3-((3-((4-(3-(piperazin-1-yl)phenyl)pyrimidin-2-yl)amino)phenyl)amino) propyl)-5H-dipyrrolo[1,2-c:2′,1′-f]
Time-resolved fluorescence resonance energy transfer (TR-FRET) assay
The fluorescent probe ligand, 5,5-difluoro-7,9-dimethyl-3-(3-oxo-3-((3-((4-(3-(piperazin-1-yl)phenyl)pyrimidin-2-yl)amino)phenyl)amino) propyl)-5H-dipyrrolo[1,2-c:2′,1′-f] […] After shaded incubation of the protein-probe mixture on ice for 30 min, the premix was dispensed in the assay plate including test inhibitors with 4 fold dilution series of eight concentrations. After 1 hr incubation at room temperature, TR-FRET signals were measured in duplicate using an EnVision microplate reader (Perkin Elmer, Waltham, MA, USA).
The half maximal inhibitory concentration (IC50) of test compounds was calculated by fitting the data with the logistic equation using XLfit (IDBS, Guildford, UK).

Structure (SMILES) | IC50 [µM]
COCCCNC(=O)c1cccc(-c2cnn3ccc(-c4ccc(F)c(O[C@@H](C)Cn5cnnn5)c4)nc23)c1 [compound 9] | < 0.01
Cc1ncc(-c2cnn3ccc(-c4ccc(F)c(O[C@@H](C)Cn5cnnn5)c4)nc23)s1 [compound 141] | < 0.01
C[C@@H](Cn1cnnn1)Oc1cc(-c2ccn3ncc(-c4ccccc4C(F)(F)F)c3n2)ccc1F [compound 129] | > 0.1
C[C@@H](Cn1cnnn1)Oc1cccc(-c2ccn3ncc(-c4cccc(C(=O)NCC(C)(C)C)c4)c3n2)c1 [compound 72] | < 0.01
C[C@@H](Cn1cnnn1)Oc1cccc(-c2ccc3ncn(-c4cc(F)cc(O)c4C#N)c3n2)n1 [Example 472, 4-fluoro-2-hydroxy-6-[5-(6-{[(2S)-1-(1H-tetrazol-1-yl)propan-2-yl]oxy}pyridin-2-yl)-3H-imidazo[4,5-b]pyridin-3-yl]benzonitrile] | < 0.01
C[C@@H](Cn1cnnn1)Oc1cc(-c2ccc3ncc(-c4cccs4)n3n2)ccc1F [compound 60] | < 0.01
C[C@@H](Cn1cnnn1)Oc1cccc(-c2ccn3ncc(-c4cccc(C(=O)NCC5CCOCC5)c4)c3n2)c1 [compound 100] | < 0.01
COC(=O)c1cccc(-c2cnn3ccc(-c4ccc(F)c(O[C@@H](C)Cn5cnnn5)c4)nc23)c1 [compound 6] | < 0.01
C[C@@H](Cn1cnnn1)Oc1cc(-c2ccn3ncc(-c4ccn(CC#N)n4)c3n2)ccc1F [compound 161] | < 0.01
C[C@@H](Cn1cnnn1)Oc1cc(-c2ccn3ncc(-c4ccc(N5CCOCC5)cc4)c3n2)ccc1F [compound 49] | 0.01 to 0.1
CCOC(=O)c1ccc(C#N)c(-c2cnc3ccc(-c4ccc(F)c(O[C@@H](C)Cn5cnnn5)c4)nn23)c1 [compound 146] | < 0.01
C[C@@H](Cn1cnnn1)Oc1cncc(-c2ccc3ncc(-c4nccc(C(F)F)c4C#N)n3n2)n1 [compound 471] | > 0.1
C[C@@H](Cn1cnnn1)Oc1cc(-c2ccc3ncn(-c4cccc(C(=O)O)c4C#N)c3n2)ccc1F [compound 189] | 0.01 to 0.1
CC(=O)NC1CCN(C(=O)c2cccc(-c3cnn4ccc(-c5cccc(O[C@@H](C)Cn6cnnn6)c5)nc34)c2)CC1 [compound 73] | 0.01 to 0.1
C[C@@H](Cn1cnnn1)Oc1cccc(-c2ccn3ncc(-c4cccc(C(=O)NC5CCN(C)C5)c4)c3n2)c1 (some centres unmarked) [compound 88] | < 0.01
C[C@@H](Cn1cnnn1)Oc1cc(-c2ccn3ncc(-c4cccc(OCC#N)c4)c3n2)ccc1F [compound 33] | < 0.01
C[C@@H](Cn1cnnn1)Oc1cccc(-c2ccn3ncc(-c4cccc(C(=O)NC5CC(=O)N(C)C5)c4)c3n2)c1 (stereo partly drawn) [compound 97, N-(1-methyl-5-oxopyrrolidin-3-yl)-3-[5-(3-{[(2S)-1-(1H-tetrazol-1-yl)propan-2-yl]oxy}phenyl)pyrazolo[1,5-a]pyrimidin-3-yl]benzamide] | < 0.01
CCN(CC)CCNC(=O)c1ccnc(-n2cnc3ccc(-c4ccc(F)c(O[C@@H](C)Cn5cnnn5)c4)nc32)c1 [compound 117] | < 0.01

Structure (SMILES) | IC50 [µM]
CC(=O)Nc1ccccc1-c1cnn2ccc(-c3ccc(F)c(O[C@@H](C)Cn4cnnn4)c3)nc12 [compound 39] | > 0.1
CNC(=O)c1cccc(-n2cnc3ccc(-c4ccc(F)c(O[C@@H](C)Cn5cnnn5)c4)nc32)c1 [compound 115] | < 0.01
COC(=O)c1cccc(-n2cnc3ccc(-c4ccc(F)c(O[C@@H](C)Cn5cnnn5)c4)nc32)c1C#N [compound 179] | 0.01 to 0.1
C[C@@H](Cn1cnnn1)Oc1cc(-c2ccn3ncc(-c4cccc(Cl)c4)c3n2)ccc1F [compound 134] | < 0.01
C[C@@H](Cn1cnnn1)Oc1cccc(-c2ccn3ncc(-c4cccc(C(=O)N5CCC(O)CC5)c4)c3n2)c1 [compound 89] | 0.01 to 0.1
C[C@@H](Cn1cnnn1)Oc1cccc(-c2ccn3ncc(-c4cccc(C(=O)NCCCN5CC(O)C5)c4)c3n2)c1 [compound 66] | < 0.01
C[C@@H](Cn1cnnn1)Oc1cccc(-c2ccn3ncc(-c4cccc(C(=O)NCCN5CCCC5=O)c4)c3n2)c1 [compound 113] | < 0.01
C[C@@H](Cn1cnnn1)Oc1cc(-c2ccn3ncc(-c4ccc(F)cc4)c3n2)ccc1F [compound 51] | < 0.01
CC(=O)Nc1cccc(-c2cnn3ccc(-c4ccc(F)c(O[C@@H](C)Cn5cnnn5)c4)nc23)c1 [compound 36] | < 0.01
C[C@@H](Cn1cnnn1)Oc1cc(-c2ccc3ncc(-c4cccn(C)c4=O)n3n2)ccc1F [compound 196] | < 0.01
C[C@@H](Cn1cnnn1)Oc1cc(-c2ccn3ncc(-c4ccccc4N4CCNCC4)c3n2)ccc1F [compound 55] | > 0.1
C[C@@H](Cn1cnnn1)Oc1cc(-c2ccc3ncn(-c4ccccc4C#N)c3n2)ccc1F [compound 151] | < 0.01
COc1ccnc(-c2cnc3ccc(-c4ccc(F)c(O[C@@H](CF)Cn5cnnn5)c4)nn23)c1C#N [Example 475, 2-[6-(4-fluoro-3-{[(2R)-1-fluoro-3-(1H-tetrazol-1-yl)propan-2-yl]oxy}phenyl)imidazo[1,2-b]pyridazin-3-yl]-4-methoxypyridine-3-carbonitrile] | < 0.01
C[C@@H](Cn1nnnc1N)Oc1cccc(-c2ccn3ncc(-c4cccs4)c3n2)c1 [compound 59] | < 0.01
C[C@@H](Cn1cnnn1)Oc1cc(-c2ccc3ncn(-c4ccc[nH]c4=O)c3n2)ccc1F [compound 175] | 0.01 to 0.1
C[C@@H](Cn1cnnn1)Oc1cccc(-c2ccn3ncc(-c4cccc(C(=O)NCCC5CCN(C)CC5)c4)c3n2)c1 [compound 76] | < 0.01
CCN(CC)CCNC(=O)c1cccc(-c2cnn3ccc(-c4ccc(C#N)c(O[C@@H](C)Cn5cnnn5)c4)nc23)c1 [Example 1, 3-[5-(4-cyano-3-{[(2S)-1-(1H-tetrazol-1-yl)propan-2-yl]oxy}phenyl)pyrazolo[1,5-a]pyrimidin-3-yl]-N-[2-(diethylamino)ethyl]benzamide] | 0.01 to 0.1

Same assay, conditions: in vitro CaMKII inhibitory activity (binding assay), human CaMKIIδ; read-out: Act

Structure (SMILES) | IC50 [µM]
Cc1c[nH]c(=O)c(-c2cnc3ccc(-c4cccc(O[C@@H](C)Cn5cnnn5)c4)nn23)c1 [compound 329] | < 0.01
C[C@@H](Cn1cnnn1)Oc1cccc(-c2ccc3ncc(-c4ncnc(N)c4C#N)n3n2)c1 [compound 394] | 0.01 to 0.1
C[C@@H](Cn1cnnn1)Oc1cccc(-c2ccc3ncn(-c4cccc(C(F)F)c4C#N)c3n2)c1 [compound 395] | < 0.01
C[C@@H](Cn1cnnn1)Oc1cc(-c2ccc3ncc(-c4cc(N=S(C)(C)=O)ccc4C#N)n3n2)ccc1F [compound 263] | > 0.1
CCOc1ccnc(-n2cnc3ccc(-c4cccc(O[C@@H](C)Cn5cnnn5)c4)nc32)c1C#N [compound 374] | < 0.01
C[C@@H](Cn1cnnn1)Oc1cccc(-c2ccc3ncc(-c4cc(=O)n(C)cc4C#N)n3n2)c1 [compound 348] | < 0.01
C[C@@H](Cn1cnnn1)Oc1cccc(-c2ccc3ncc(-c4cccn(CCOCC(F)(F)F)c4=O)n3n2)c1 [compound 341] | < 0.01
C[C@@H](Cn1cnnn1)Oc1cccc(-c2ccc3ncc(-c4nccc(N5CCCC5)c4C#N)n3n2)c1 [compound 363] | 0.01 to 0.1
C[C@@H](Cn1cnnn1)Oc1cccc(-c2ccc3ncc(-c4nccc(OCC(F)(F)F)c4C#N)n3n2)c1 [compound 344] | < 0.01
COc1cncc(-c2cnc3ccc(-c4ccc(F)c(O[C@@H](C)Cn5cnnn5)c4)nn23)c1C#N [compound 470] | < 0.01
COc1ccnc(-c2cnc3ccc(-c4ccc(F)c(O[C@@H](C)Cn5ncnn5)c4)nn23)c1C#N [compound 444] | < 0.01
C[C@@H](Cn1cnnn1)Oc1cccc(-c2ccc3ncc(-c4ccccc4CO)n3n2)c1 [compound 308] | < 0.01
CCOc1ccnc(-c2cnc3ccc(-c4cccc(O[C@@H](C)Cn5cnnn5)c4)nn23)c1C#N [compound 366] | < 0.01
C[C@@H](Cn1cnnn1)Oc1ccnc(-c2ccc3ncc(-c4cc(F)ccc4C#N)n3n2)c1 [Example 311, 4-fluoro-2-[6-(4-{[(2S)-1-(1H-tetrazol-1-yl)propan-2-yl]oxy}pyridin-2-yl)imidazo[1,2-b]pyridazin-3-yl]benzonitrile] | < 0.01
C[C@@H](Cn1cnnn1)Oc1cccc(-c2ccn3ncc(-c4cnccc4C#N)c3n2)c1 [compound 310] | < 0.01
C[C@@H](Cn1cnnn1)Oc1cc(-c2ccc3ncc(-c4c(C#N)ccc[n+]4[O-])n3n2)ccc1F [compound 297] | 0.01 to 0.1
CNC(=O)c1c(-c2cnc3ccc(-c4ccc(F)c(O[C@@H](C)Cn5cnnn5)c4)nn23)cnn1CCCOC [compound 235] | > 0.1
C[C@@H](Cn1cnnn1)Oc1cccc(-c2ccc3ncc(-c4cc(Cl)c[nH]c4=O)n3n2)c1 [compound 328] | < 0.01
COc1nccc(-c2cnc3ccc(-c4cccc(O[C@@H](C)Cn5cnnn5)n4)nn23)c1C#N [compound 403] | < 0.01
CCOc1ncnc(-c2cnc3ccc(-c4cccc(O[C@@H](C)Cn5cnnn5)c4)nn23)c1C#N [compound 365] | < 0.01
CC(=O)c1cccc(-c2cnc3ccc(-c4cccc(O[C@@H](C)Cn5cnnn5)c4)nn23)c1C#N [Example 426, 2-acetyl-6-[6-(3-{[(2S)-1-(1H-tetrazol-1-yl)propan-2-yl]oxy}phenyl)imidazo[1,2-b]pyridazin-3-yl]benzonitrile] | < 0.01
